The test system of one data set is M. kansasii DSM 44162. Briefly: In vitro antimycobacterial evaluation (broth dilution MIC). Particulars: Mycobacterium kansasii, DSM44162, 168 h; M. kansasii DSM 44162, 7 days, 37 °C. In kind it is cell-based.
Data set [1] deals with methicillin-resistant Staphylococcus aureus SA 630. The data set is described as follows: In vitro antibacterial susceptibility testing (broth dilution MIC). In kind it is cell-based. Particulars: MRSA, clinical isolate SA 630, 24 h, 37 °C. The method, then:
(§1) The synthesized compounds were evaluated for in vitro antibacterial activity against representatives of multidrug-resistant bacteria, clinical isolates of methicillin-resistant Staphylococcus aureus (MRSA) 63718, SA 630 and SA 3202 that were obtained from the National Institute of Public Health, Prague, Czech Republic. Staphylococcus aureus ATCC 29213 was used as a reference and quality control strain. Ampicillin (Sigma-Aldrich) was used as the standard. Prior to testing, each strain was passaged onto nutrient agar (Oxoid, Hampshire, UK) with 5% of bovine blood, and bacterial inocula were prepared by suspending a small portion of bacterial colony in sterile phosphate buffered saline (pH 7.2–7.3). The cell density was adjusted to 0.5 McFarland units using a densitometer (Densi-La-Meter, LIAP, Riga, Latvia). The final inoculum was made by 1:20 dilution of the suspension with the Mueller-Hinton broth (MH broth). […] The final concentrations of the evaluated compounds ranging from 256 μg/mL to 0.008 μg/mL. The broth dilution micro-method modified according to NCCLS guidelines in MH broth was used to determine the minimum inhibitory concentration (MIC). Drug-free controls, sterility controls and controls consisted of MH broth and DMSO alone were included. The determination of results was performed visually after 24 h of static incubation in the darkness at 37 °C in an aerobic atmosphere. The MICs were defined as the lowest concentration of the compound at which no visible bacterial growth was observed.

Data set [2] has as its system Staphylococcus aureus ATCC 29213. The description is as above. It counts as cell-based. Particulars: ATCC29213; Staphylococcus aureus ATCC 29213, 24 h, 37 °C. As for the experimental part: as §1
Data set [3] relates to methicillin-resistant Staphylococcus aureus (MRSA) 63718. The description is as above. Particulars: clinical isolate MRSA 63718, 24 h, 37 °C. In kind it is cell-based. As for the experimental part: as §1
Data set [4] has as its system methicillin-resistant Staphylococcus aureus SA 3202. The description is as above. In kind it is cell-based. Particulars: MRSA, clinical isolate SA 3202, 24 h, 37 °C, read-out: MIC MRSA 3202. The method, then: as §1
The test system of data set [5] is Mycobacterium marinum CAMP 5644. The data set is described as follows: In vitro antimycobacterial evaluation (broth dilution MIC). In kind it is cell-based. Particulars: Mycobacterium marinum, CAMP5644, 504 h, M. marinum CAMP 5644, 21 days, 28 °C.
Data set [6] deals with Mycobacterium avium subsp. paratuberculosis (CIT03). Briefly: In vitro antimycobacterial evaluation (alamarBlue MIC). It counts as cell-based. Particulars: 264 h, M. avium paratuberculosis CIT03, 11 days, 37 °C. The method, then: A well characterised clinical isolate of Mycobacterium avium subsp. paratuberculosis (CIT03) was grown in Middlebrook broth (MB), supplemented with Oleic-Albumin-Dextrose-Catalase supplement (OADC, Becton, Dickinson & Comp., Franklin Lakes, NJ, USA) and mycobactin J (2 µg/mL). Identification of this isolate was performed using biochemical and molecular protocols. At log phase growth, a culture sample (10 mL) was centrifuged at 15,000 rpm/20 min using a bench top centrifuge (Model CR 4-12, Jouan Inc., Winchester, VA, USA). Following removal of the supernatant, the pellet was washed in fresh Middlebrook 7H9GC broth and re-suspended in fresh supplemented MB (10 mL). The turbidity was adjusted to match McFarland standard No. 1 (3 × 10^8 cfu) with MB broth. A further 1:20 dilution of the culture was then performed in MB broth. The antimicrobial susceptibility of the mycobacterial species was investigated in a 96-well plate format. In these experiments, sterile deionised water (300 µL) was added to all outer-perimeter wells of the plates to minimize evaporation of the medium in the test wells during incubation. Each evaluated compound (100 µL) was incubated with each of the mycobacterial species (100 µL). Dilutions of each compound were prepared in duplicate. For all synthesized compounds, final concentrations ranged from 1,000 µg/mL to 8 µg/mL. All compounds were prepared in DMSO and subsequent dilutions were made in supplemented MB. The plates were sealed with parafilm and incubated at 37 °C, for 11 days in the case of M. avium paratuberculosis. Following incubation, a 10% addition of alamarBlue (AbD Serotec, Kidlington, UK) was mixed into each well and readings at 570 nm and 600 nm were taken, initially for background subtraction and subsequently after 24 h re-incubation. The background subtraction is necessary for strongly coloured compounds, where the colour may interfere with the interpretation of any colour change. For non-interfering compounds, a blue colour in the well was interpreted as an absence of growth and a pink colour was scored as growth. The minimum inhibitory concentrations (MICs) were initially defined as the lowest concentration which prevented a visual colour change from blue to pink.
The MICs were defined as the lowest concentration of the compound at which no visible bacterial growth was observed. The MIC value is routinely and widely used in bacterial assays and is a standard detection limit according to the Clinical and Laboratory Standards Institute (CLSI). Isoniazid (Sigma-Aldrich) was used as reference antimycobacterial drug.
A general note: The colour change of resazurin is a common sign of viable cells or microbes.

Data set [7] can be described thus: Lipophilicity determination by RP-HPLC (capacity factor log k). In kind it is physicochemical. Particulars: isocratic, MeOH 60%/H2O 40%, C18. As for the experimental part:
A HPLC system Agilent 1200 equipped with DAD detector (Agilent, Santa Clara, CA, USA) was used. A chromatographic column Symmetry® C18 5 μm, 4.6 × 250 mm, Part No. WAT054275, (Waters Corp., Milford, MA, USA) was used. The HPLC separation process was monitored and evaluated by EZChrom Elite software ver. 3.3.2 (Agilent). Isocratic elution by a mixture of MeOH p.a. (60%) and H2O-HPLC Mili-Q grade (40%) as a mobile phase was used. The total flow of the column was 1.0 mL/min, injection 20 μL, column temperature 40 °C and sample temperature 10 °C. The detection wavelength 210 nm was chosen. The KI methanolic solution was used for the dead time (tD) determination. Retention times (tR) were measured in minutes. The capacity factors k were calculated according to formula k = (tR − tD)/tD, where tR is the retention time of the solute, whereas tD denotes the dead time obtained using an unretained analyte. Log k, calculated from the capacity factor k, is used as the lipophilicity index converted to log P scale.

For the next data set, the system named is M. smegmatis ATCC 700084. Briefly: In vitro antimycobacterial evaluation (broth dilution MIC). In kind it is cell-based, Mycobacterium smegmatis. Particulars: Mycolicibacterium smegmatis, ATCC700084, 72 h; M. smegmatis ATCC 700084, 3 days, 37 °C. (In general: In broth dilution the organism is exposed to a series of concentrations in liquid medium.)
Data set [8] deals with photosynthetic electron transport (PET) in spinach chloroplasts. The data set is described as follows: Inhibition of photosynthetic electron transport (PET) in spinach chloroplasts. It counts as biochemical, Spinacia oleracea L. Particulars: DCPIP photoreduction. As for the experimental part:
Chloroplasts were prepared from spinach (Spinacia oleracea L.) according to Masarovicova and Kralova. The inhibition of photosynthetic electron transport (PET) in spinach chloroplasts was determined spectrophotometrically (Genesys 6, Thermo Electron Scientific Instruments, Madison, WI, USA), using an artificial electron acceptor 2,6-dichlorophenol-indophenol (DCPIP) according to Kralova et al., and the rate of photosynthetic electron transport was monitored as a photoreduction of DCPIP. The measurements were carried out in phosphate buffer (0.02 mol/L, pH 7.2) containing sucrose (0.4 mol/L), MgCl2 (0.005 mol/L) and NaCl (0.015 mol/L). The chlorophyll content was 30 mg/L in these experiments and the samples were irradiated (~100 W/m^2 with 10 cm distance) with a halogen lamp (250 W) using a 4 cm water filter to prevent warming of the samples (suspension temperature 22 °C). The studied compounds were dissolved in DMSO due to their limited water solubility. […] The inhibitory efficiency of the studied compounds was expressed by IC50 values, i.e., by molar concentration of the compounds causing 50% decrease in the oxygen evolution rate relative to the untreated control.

These results are taken from article PMC6270026, “Antibacterial and Herbicidal Activity of Ring-Substituted 2-Hydroxynaphthalene-1-carboxanilides” (Molecules, 2013).

pIC50: −log10 of the molar value. Converted amounts (≈) assume the structure as drawn.

By MIC is commonly meant the lowest concentration that inhibits growth of the organism. For orientation: pIC50 means the negative decadic logarithm of the IC50, by convention in mol/L. Higher therefore signals a low IC50. With `O=C(Nc1ccc(F)cc1)c1c(O)ccc2ccccc12` [Compound 4c, N-(4-fluorophenyl)-2-hydroxynaphthalene-1-carboxamide], the minimal inhibitory concentration (MIC) (with M. kansasii DSM 44162; in data set [1]; in [2]; in data set [3]; in data set [4]; in data set [5]) was greater than 910 µM each time. For the same compound, the MIC in data set [6] is greater than 889 µM; against M. smegmatis ATCC 700084, greater than 910 µM. In addition, the log k in [7] worked out at 0.5568. Moreover, the pIC50 in [8] is 3.50.

`O=C(Nc1cccc(Cl)c1)c1c(O)ccc2ccccc12` [Compound 5b, N-(3-chlorophenyl)-2-hydroxynaphthalene-1-carboxamide]: the MIC is 53.7 µM (≈ 16 µg/mL) against M. kansasii DSM 44162; greater than 860 µM in data set [1]; greater than 860 µM in data set [2]; greater than 860 µM in data set [3]; 107 µM (≈ 31.9 µg/mL) in [4]; greater than 860 µM in [5]. Further, the MIC amounted to 840 µM (≈ 250 µg/mL) in data set [6] and 215 µM (≈ 64 µg/mL) against M. smegmatis ATCC 700084. The same compound came in with a log k in data set [7] of 0.7904. In addition, the pIC50 in [8] is 4.10.

As to `O=C(Nc1ccc(Cl)cc1)c1c(O)ccc2ccccc12` [Compound 5c, N-(4-chlorophenyl)-2-hydroxynaphthalene-1-carboxamide], the MIC was 53.7 µM (≈ 16 µg/mL) against M. kansasii DSM 44162; greater than 860 µM in data set [1]; 215 µM (≈ 64 µg/mL) in data set [2]; greater than 860 µM in data set [3]; 107 µM (≈ 31.9 µg/mL) in [4]; greater than 860 µM in [5]. In addition, the results for the MIC (in [6]; in the data set on M. smegmatis ATCC 700084) were 420 µM (≈ 125 µg/mL) and greater than 860 µM, respectively. Also, the log k in [7] is 0.7908. This compound showed a pIC50 in data set [8] of 4.23.

For the compound `O=C(Nc1ccccc1Br)c1c(O)ccc2ccccc12` [Compound 6a, N-(2-bromophenyl)-2-hydroxynaphthalene-1-carboxamide], the MIC in the data set with M. kansasii DSM 44162 is 93.5 µM (≈ 32 µg/mL); in [1] it was greater than 748 µM; in [2], greater than 748 µM; in [3], greater than 748 µM; in data set [4], greater than 748 µM; in [5], greater than 748 µM. Besides, the MIC in data set [6] was 731 µM (≈ 250 µg/mL); in the data set on M. smegmatis ATCC 700084 it was greater than 748 µM. The compound also registered a log k in data set [7] of 0.9509. Besides, the negative logarithm of the IC50 (pIC50) in data set [8] was 4.28.

Consider `O=C(Nc1cccc(Br)c1)c1c(O)ccc2ccccc12` [Compound 6b, N-(3-bromophenyl)-2-hydroxynaphthalene-1-carboxamide], for which the MIC in the data set on M. kansasii DSM 44162 is 46.7 µM (≈ 16 µg/mL); in [1], greater than 748 µM; in data set [2], greater than 748 µM; in data set [3] it was greater than 748 µM; in data set [4], greater than 748 µM; in data set [5], greater than 748 µM. For the same compound, the MIC in data set [6] is 731 µM (≈ 250 µg/mL); in the data set with M. smegmatis ATCC 700084, greater than 748 µM. For the same compound, the log k in data set [7] is recorded as 0.8595. Further, the pIC50 in data set [8] was 4.21.

For `O=C(Nc1ccc(Br)cc1)c1c(O)ccc2ccccc12` [Compound 6c, N-(4-bromophenyl)-2-hydroxynaphthalene-1-carboxamide], the MIC against M. kansasii DSM 44162 is 93.5 µM (≈ 32 µg/mL); in [1] it was 47 µM (≈ 16.1 µg/mL); in data set [2] it was 47 µM (≈ 16.1 µg/mL); in [3], 187 µM (≈ 64 µg/mL); in [4], 94.1 µM (≈ 32.2 µg/mL); in data set [5] it was 187 µM (≈ 64 µg/mL). Further, the MIC is 175 µM (≈ 59.9 µg/mL) in data set [6] and 187 µM (≈ 64 µg/mL) in the data set with M. smegmatis ATCC 700084. Further, the log k in data set [7] was determined as 0.8790. This compound had a pIC50 in data set [8] of 3.99.

As to `O=C(Nc1ccc(C(F)(F)F)cc1)c1c(O)ccc2ccccc12` [Compound 7c, 2-Hydroxy-N-(4-trifluoromethylphenyl)naphthalene-1-carboxamide], the MIC against M. kansasii DSM 44162 is 23.3 µM (≈ 7.72 µg/mL); in [1] it was 94 µM (≈ 31.1 µg/mL); in data set [2] it was greater than 748 µM; in [3] it was 94 µM (≈ 31.1 µg/mL); in [4] it was 47 µM (≈ 15.6 µg/mL); in data set [5] it was greater than 748 µM. Further, the MIC is 731 µM (≈ 242 µg/mL) in data set [6] and greater than 748 µM with M. smegmatis ATCC 700084. In addition, in data set [7], the log k is 0.9994. Further, the pIC50 in [8] was 4.54.
